{
  "source": "paper PMC9130233",
  "about": "“An inhibitor of RORγ for chronic pulmonary obstructive disease treatment” (Scientific Reports, 2022)",
  "key": {"[1]": {"target": "T1, mouse RORγ LBD (Mus musculus, UniProt P51450)", "T1 construct": "RORγt-LBD region 264-516aa; made in house", "T1 sequence (P51450 264-516)": "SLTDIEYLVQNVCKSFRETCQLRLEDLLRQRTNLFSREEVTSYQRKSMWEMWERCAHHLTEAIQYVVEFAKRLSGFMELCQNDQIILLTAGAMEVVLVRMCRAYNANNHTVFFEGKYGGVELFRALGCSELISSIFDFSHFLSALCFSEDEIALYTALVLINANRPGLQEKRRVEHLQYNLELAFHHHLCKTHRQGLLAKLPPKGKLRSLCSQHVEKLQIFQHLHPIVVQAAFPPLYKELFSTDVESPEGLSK", "assay": "RORγt-LBD co-activator ligand binding TR-FRET assay, mouse", "conditions": "n = 6", "source_text": "To identify small molecule RORγ inhibitors, we conducted in vitro screening using a TR-FRET binding assay to determine the inhibition of RORγ with a series of different compounds. With extensive effort and from hit identification to lead optimization, PCCR-1 was identified[29] (Fig. 1A). Based on the homology of the ligand binding domains (LBD) between different ROR isoforms (hRORα, hRORβ and hRORγ), slight variations have been observed in the LBD regions which possibly lead to differences in competitive binding between the isoforms (Fig. 1B). Simultaneous binding of a tracer and antibody results in an increase in fluorescence resonance energy transfer (FRET), which decreases with displacement of the tracer upon inhibitor binding.\nThe human and mouse RORγt cDNA clones were obtained from OriGene (MD USA). […] The next day, plate was read on Infinite F500 reader (Magellan Tecan Switzerland). […] The percent activity of each dilution was determined as the ratio of background corrected signal to the background corrected signal of wells receiving only DMSO. IC50 values were determined by fitting percent inhibition data in GraphPad Prism (version-5.01) software."}, "[2]": {"tested_on": "IL-17A release in mouse splenocytes", "assay": "IL-17A release, mouse splenocytes, anti-CD3 + anti-CD28", "type": "cell-based", "conditions": "Splenocyte, anti-CD3 + anti-CD28, n = 13, read-out: Cellular activity: Mouse IC50, IL-17A release", "experimental": "Inhibition of RORγ by PCCR-1 was also estimated in a functional assay by measuring the inhibition of Th17 dependent cytokine IL-17A release in human peripheral blood mononuclear cells (PBMCs), mouse splenocytes and canine PBMC stimulated with their respective anti-CD3 and anti-CD28 antibodies.\nSplenocytes were prepared from 6–8 week old BALB/c mice and cells were seeded in 96-well plates coated with mouse anti-CD3 mAb (10 µg/mL). Cells were treated with test compounds for 30 min followed by stimulation with mouse anti- CD28 mAb (3 µg/mL) for 72 h at 37 °C in 5% CO2 incubator. The supernatant was used for estimating mouse IL-17 by ELISA."}, "[3]": {"tested_on": "T2, RORα", "T2 construct": "purchased Invitrogen", "assay": "TR-FRET selectivity binding assay, RORα", "set-up": "species or system human", "source_text": "(§1) Based on the homology of the ligand binding domains, 3 different isoforms of ROR (hRORα, hRORβ and hRORγ) are reported. Small variations in the LBD regions possibly lead to differences in competitive binding between the nuclear receptors of the ROR isoforms (Fig. 1b). Similar to the assessment of RORγ binding assay, TR-FRET binding assays were also used to assess the affinity of PCCR-1 for other ROR isoforms. […] This was reconfirmed in cellular functional assays for the selected isoforms and nuclear receptors using Gal4 DBD with luciferase reporter system from Indigo (PA, USA). […] In addition, both cellular agonist and antagonist effects as well as for enzyme activity were evaluated with a known reference compound for each target, using a radiolabeled method (Eurofins Cerep, France, Table 1).\n(§2) For selectivity, the ROR isoforms RORα, FXR, LXRα, LXRβ, RXR, RARα were incubated with compound for 60 min at 22 °C followed by detection mix containing respective agonist (All trans retinoic acid for RARα, T0901317 for LXRα, LXRβ, 9-cis Retinoic acid for RXR, GW-4064 for FXR) and coactivator peptide (FD22 for RORα, PGC1α for RXR, RARα, TRAP220 for LXRα, LXRβ, SRC2-2 for FXR) and Tb-anti GST antibody prepared in assay buffer were added into a 384-well white plate. Reading taken after overnight incubation and the data analysis done as per the protocol mentioned in RORγt-LBD and co-activator ligand binding assay."}, "[4]": {"target": "T3, Alpha 1D (Homo sapiens, UniProt P25100)", "T3 construct": "Eurofins Cerep", "T3 sequence (P25100 whole entry)": "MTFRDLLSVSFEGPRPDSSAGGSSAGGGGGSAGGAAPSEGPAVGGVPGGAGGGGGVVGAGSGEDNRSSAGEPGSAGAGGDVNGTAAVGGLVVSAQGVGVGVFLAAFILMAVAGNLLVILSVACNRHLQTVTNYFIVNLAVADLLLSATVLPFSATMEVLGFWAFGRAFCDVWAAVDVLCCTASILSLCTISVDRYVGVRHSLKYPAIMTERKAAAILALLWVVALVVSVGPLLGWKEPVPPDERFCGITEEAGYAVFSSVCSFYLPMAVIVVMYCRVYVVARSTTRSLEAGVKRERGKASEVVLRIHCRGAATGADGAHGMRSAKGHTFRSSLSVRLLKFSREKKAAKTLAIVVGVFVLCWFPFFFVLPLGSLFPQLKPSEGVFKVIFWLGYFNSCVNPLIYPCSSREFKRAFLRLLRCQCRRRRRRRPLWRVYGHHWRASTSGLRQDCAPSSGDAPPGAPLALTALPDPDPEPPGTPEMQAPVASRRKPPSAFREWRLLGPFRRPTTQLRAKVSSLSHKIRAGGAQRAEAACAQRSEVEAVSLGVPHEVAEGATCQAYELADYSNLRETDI", "assay": "Cerep panel, Alpha 1D", "source_text": "as §1"}, "[5]": {"tested_on": "T4, LXRα", "T4 construct": "purchased Invitrogen", "assay": "TR-FRET selectivity binding assay, LXRα", "source_text": "as §1, §2"}, "[6]": {"tested_on": "IL-22 release in human PBMC", "assay": "IL-22 release, human PBMC under Th17 polarization conditions", "type": "cell-based", "conditions": "human PBMC under Th17 polarization condition", "experimental": "An increase in the levels of Th17 dependent cytokine in the peripheral blood of COPD patients as compared to the Th1 and Th2 dependent cytokines has been well documented in a subset of COPD patients. A comparative study was performed under TCR activating conditions to evaluate the potencies of PCCR-1 for inhibition across Th1, Th2 and Th17 dependent cytokines using hPBMCs.\nHuman whole blood from healthy subjects were procured from Clinical Research Unit, Sanpada. Clinical Research Center Glenmark (Plot No. D, 508, Turbhe, TTC Industrial Area, MIDC, Sanpada, Navi Mumbai, Maharashtra 400705, India). PBMCs were isolated using heparinized blood with Ficoll Histopaque. Briefly, the cells were seeded in 96-well plate pre-coated with human anti-CD3 mAb (10 µg/mL), post 30 min of compound treatment cells were stimulated with human anti-CD28 mAb (2 µg/mL). After 72 h of culture, the supernatant was collected for Th1/Th2 cytokines; IFN-γ, IL-2, IL-4 and IL-10 and measured by ELISA. For Th17 polarization assay, the following cytokine cocktail was used: IL-1β (10 ng/ml), IL-23(10 ng/ml), IL-6 (50 ng/ml), TGF-β1 (3 ng/ml), IL-2 (20U/ml) and supernatants were used for measuring IL-17 and IL-22 by ELISA."}},
  "data": [
    {"molecule": "CCn1c(C(C)(C)Oc2ccc(F)cc2F)nc2cc(NC(=O)Cc3ccc(S(=O)(=O)CC)cc3)ccc21", "note": "[PCCR-1]", "values": [
      {"measurement": "IC50", "setting": "[1]", "value": 778, "unit": "nM"},
      {"measurement": "IC50", "setting": "[2]", "value": 766, "unit": "nM"},
      {"measurement": "% Inhibition RORα", "setting": "[3]; 1 µM", "value": 20.91, "unit": "%"},
      {"measurement": "% Inhibition RORα", "setting": "[3]; 10 µM", "value": 19.82, "unit": "%"},
      {"measurement": "Fold over hRORγ, RORα", "setting": "[3]; vs RORg IC50 31.87 nM", "value": "> 313.7", "unit": "fold"},
      {"measurement": "IC50", "setting": "[4]", "value": 550, "unit": "nM"},
      {"measurement": "% Inhibition LXRα", "setting": "[5]; 1 µM", "value": 11.38, "unit": "%"},
      {"measurement": "% Inhibition LXRα", "setting": "[5]; 10 µM", "value": 30.37, "unit": "%"},
      {"measurement": "Fold over hRORγ, LXRα", "setting": "[5]; vs RORg IC50 31.87 nM", "value": "> 313.7", "unit": "fold"},
      {"measurement": "ceiling effect for IL-22 release inhibition", "setting": "[6]", "value": 60, "unit": "%"},
      {"measurement": "IC50", "setting": "[6]; n = 2, read-out: hIL-22 IC50", "value": 43.8, "unit": "nM"}
    ]}
  ]
}
